Consider four compounds from PMC10006239, “C–N bond formation by a polyketide synthase” (Nature Communications, 2023).

The target in assay [1] is T1, CalA3 (Streptomyces chartreusis, UniProt A0A2N9BJK0).
T1 construct: gene SCNRRL3882_6975; full length, gene 5178 bp, C-terminal 6xHis tag (pET28a), E. coli BAP1; about 180 kDa per chain, homodimer about 360 kDa; domains DD-KS-LD-AT-DH-psiKR/KR, no ACP
Kind of assay: HPLC turnover assay at […] nm, products confirmed by LC-HRMS and NMR. It counts as biochemical. The note with it: 5 µM CalA3, 0.15 mM SNAC-N1, 0.5 mM 3-HAA, 25 mM Tricine pH 7.5, 30 °C, 13 h; amidation and hydrolysis.

Assay [2] concerns the target T1, CalA3. Kind of assay: cryo-EM structure, […] Å. It counts as binding. The note with it: KS substrate tunnel, chain A only; specimen also contained 3-HAA; PDB id assigned by order of listing.
Assay [3] addresses T1, CalA3. Kind of assay: cryo-EM structure, […] Å. It counts as binding. The note with it: KS substrate tunnel, chains A and B; specimen also contained 3-HAA; PDB id assigned by order of listing.
The target in assay [4] is CalA3 (Streptomyces chartreusis NRRL 3882). As to the kind of experiment: cryo-EM structure; purified CalA3 at ~4 mg/mL in 50 mM Tricine pH 8.0 with 1 mM 3-HAA and SNAC-N1 (further samples at ~4.5 mg/mL with amidation or hydrolysis product and 3-HAA); Titan Krios 300 kV, K3 detector; homodimer.

T1 sequence (A0A2N9BJK0 1-1727): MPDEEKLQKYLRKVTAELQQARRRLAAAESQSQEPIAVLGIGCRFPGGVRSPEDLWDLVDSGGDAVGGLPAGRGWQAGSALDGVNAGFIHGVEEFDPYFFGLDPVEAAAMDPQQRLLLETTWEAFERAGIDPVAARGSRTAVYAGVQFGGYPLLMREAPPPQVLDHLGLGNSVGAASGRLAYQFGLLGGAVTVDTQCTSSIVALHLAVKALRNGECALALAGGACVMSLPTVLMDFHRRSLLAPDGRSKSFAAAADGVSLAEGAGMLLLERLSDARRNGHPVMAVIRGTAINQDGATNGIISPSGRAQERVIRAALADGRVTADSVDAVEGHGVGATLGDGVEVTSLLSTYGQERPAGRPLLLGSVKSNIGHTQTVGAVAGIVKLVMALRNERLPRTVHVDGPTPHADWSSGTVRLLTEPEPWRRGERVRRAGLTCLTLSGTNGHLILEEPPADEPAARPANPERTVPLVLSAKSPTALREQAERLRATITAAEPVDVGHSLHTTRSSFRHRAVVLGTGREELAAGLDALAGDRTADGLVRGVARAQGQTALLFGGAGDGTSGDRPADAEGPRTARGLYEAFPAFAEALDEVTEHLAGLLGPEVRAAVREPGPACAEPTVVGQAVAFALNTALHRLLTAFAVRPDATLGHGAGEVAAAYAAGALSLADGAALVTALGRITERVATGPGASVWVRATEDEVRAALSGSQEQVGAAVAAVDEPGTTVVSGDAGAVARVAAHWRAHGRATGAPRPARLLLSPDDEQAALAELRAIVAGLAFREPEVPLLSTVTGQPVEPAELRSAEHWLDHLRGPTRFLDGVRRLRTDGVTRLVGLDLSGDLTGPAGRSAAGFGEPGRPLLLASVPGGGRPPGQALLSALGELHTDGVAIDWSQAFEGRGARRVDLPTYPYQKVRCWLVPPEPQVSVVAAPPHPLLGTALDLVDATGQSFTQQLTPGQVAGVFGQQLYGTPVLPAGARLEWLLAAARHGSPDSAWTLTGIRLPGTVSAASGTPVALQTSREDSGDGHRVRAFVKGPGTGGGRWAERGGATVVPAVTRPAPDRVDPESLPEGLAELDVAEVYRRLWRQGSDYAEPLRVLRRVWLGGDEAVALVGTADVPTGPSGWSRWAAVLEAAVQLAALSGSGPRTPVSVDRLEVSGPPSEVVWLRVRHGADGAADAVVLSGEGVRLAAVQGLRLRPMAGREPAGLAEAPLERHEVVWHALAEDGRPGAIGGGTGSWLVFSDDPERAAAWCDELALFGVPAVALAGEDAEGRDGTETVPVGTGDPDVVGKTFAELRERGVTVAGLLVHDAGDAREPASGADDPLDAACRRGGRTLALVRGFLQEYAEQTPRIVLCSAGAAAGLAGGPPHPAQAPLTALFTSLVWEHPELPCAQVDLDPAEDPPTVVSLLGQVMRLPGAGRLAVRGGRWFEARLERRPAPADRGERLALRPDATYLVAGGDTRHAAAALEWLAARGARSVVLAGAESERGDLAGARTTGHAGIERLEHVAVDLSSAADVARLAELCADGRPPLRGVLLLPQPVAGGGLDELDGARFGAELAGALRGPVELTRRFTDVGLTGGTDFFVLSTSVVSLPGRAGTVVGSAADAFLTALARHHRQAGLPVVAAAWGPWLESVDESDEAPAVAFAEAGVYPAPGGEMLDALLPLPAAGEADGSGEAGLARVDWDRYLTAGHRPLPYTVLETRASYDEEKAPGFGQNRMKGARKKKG

On to `CC(=O)NCCSC(=O)CCCCCCCCCC(=O)c1ccc[nH]1` [compound 1, SNAC-N1], for which the “HPLC turnover assay at 290 nm, products confirmed by LC-HRMS and NMR” value at CalA3 [1] is “SNAC-N1 and 3-HAA were incubated with CalA3, and a total of three peaks were detected”.

As for `O=C(O)CCCCCCCCCC(=O)c1ccc[nH]1` [compound 2, 11-oxo-11-(pyrrol-2-yl) undecanoic acid], the “cryo-EM structure, 3.97 Å” value at CalA3 [2] is listed as “the hydrolysis product was captured only in the KS domain of chain A”.

In the case of `O=C(CCCCCCCCCC(=O)c1ccc[nH]1)Nc1c(O)cccc1C(=O)O` [compound 3, amidation product], the “cryo-EM structure, 3.84 Å” value on CalA3 [3] was “the amidation products were captured in the KS domains of both chain A and B”.

On to CalA3 (enzyme), for which the stoichiometry N (as a rule, the number of molecules, sites or subunits per partner or assembly) in assay [4] came to 2.
